Measurements as given in patent US10280149B2, “Therapeutic compounds and uses thereof” (GENENTECH, INC., priority 2015, dated 2019).
Counter-ions that a name gives are not always drawn.

The molecules below were run against Full length KDM2B (Homo sapiens (Human), UniProt Q8NHM5) (assay: KDM2B TR-FRET assay for determining inhibitor IC50). Details: TR-FRET (HTRF), biotin-H3K36me2 peptide substrate, 2-OG 0.3 μM or 6 μM.
Full length KDM2B, sequence (Q8NHM5 whole entry): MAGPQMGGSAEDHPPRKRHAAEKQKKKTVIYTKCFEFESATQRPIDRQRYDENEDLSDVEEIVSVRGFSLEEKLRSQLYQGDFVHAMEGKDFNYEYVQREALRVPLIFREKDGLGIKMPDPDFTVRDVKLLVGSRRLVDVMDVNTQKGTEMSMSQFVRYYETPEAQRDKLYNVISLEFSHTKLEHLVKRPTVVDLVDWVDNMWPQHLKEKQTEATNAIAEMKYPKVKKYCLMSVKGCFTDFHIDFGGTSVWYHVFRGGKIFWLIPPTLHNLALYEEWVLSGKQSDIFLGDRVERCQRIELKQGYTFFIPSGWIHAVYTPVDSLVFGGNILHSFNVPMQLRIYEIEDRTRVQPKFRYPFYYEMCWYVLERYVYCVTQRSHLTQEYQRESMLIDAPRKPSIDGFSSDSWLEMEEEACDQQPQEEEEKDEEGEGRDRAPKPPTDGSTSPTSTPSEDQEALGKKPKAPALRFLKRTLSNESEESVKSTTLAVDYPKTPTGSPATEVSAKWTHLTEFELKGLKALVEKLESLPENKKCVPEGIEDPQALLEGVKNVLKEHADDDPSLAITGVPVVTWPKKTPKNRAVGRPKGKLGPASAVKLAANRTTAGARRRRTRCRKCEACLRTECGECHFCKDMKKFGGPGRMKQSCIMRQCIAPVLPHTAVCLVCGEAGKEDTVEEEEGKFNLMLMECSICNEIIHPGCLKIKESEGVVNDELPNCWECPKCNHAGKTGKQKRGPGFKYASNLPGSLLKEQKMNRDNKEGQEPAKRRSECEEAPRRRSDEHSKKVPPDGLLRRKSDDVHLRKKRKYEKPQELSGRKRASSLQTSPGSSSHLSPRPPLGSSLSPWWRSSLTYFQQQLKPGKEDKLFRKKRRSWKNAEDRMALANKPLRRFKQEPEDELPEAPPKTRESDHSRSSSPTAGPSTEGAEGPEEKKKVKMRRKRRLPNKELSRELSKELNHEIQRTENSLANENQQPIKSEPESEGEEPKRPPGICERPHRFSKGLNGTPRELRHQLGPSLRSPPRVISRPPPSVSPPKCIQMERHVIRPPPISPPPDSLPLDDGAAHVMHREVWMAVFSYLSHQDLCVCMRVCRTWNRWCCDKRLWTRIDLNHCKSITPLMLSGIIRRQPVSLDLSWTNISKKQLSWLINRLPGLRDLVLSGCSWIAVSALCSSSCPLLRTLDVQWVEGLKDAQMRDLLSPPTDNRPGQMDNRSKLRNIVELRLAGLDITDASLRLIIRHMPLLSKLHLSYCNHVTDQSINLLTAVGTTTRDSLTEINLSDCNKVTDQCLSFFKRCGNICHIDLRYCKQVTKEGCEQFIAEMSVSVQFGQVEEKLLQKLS
Type: biochemical
Text: KDM2B TR-FRET Assay for Determining Inhibitor IC50
The KDM2B TR-FRET Assay described above represents an additional embodiment of the invention.
Cc1cccc2ccc(C(=O)C3CCCN(C4CCCC4)C3)cc12 (stereo not drawn) [Example 61, (1-cyclopentyl-3-piperidyl)-(8-methyl-2-naphthyl)methanone] showed an IC50 of 174 nM.
Work on Cc1cccc2ccc(C(=O)C3CCCN(C4CCC4)C3)cc12 (stereo not drawn) [Example 62, (1-cyclobutyl-3-piperidyl)-(8-methyl-2-naphthyl)methanone] yielded an IC50 of 103 nM.
Work on CC(O)c1cc(C(=O)C2CCCN(C3CCCC3)C2)cc2ccccc12 (stereo not drawn) [Example 63, (1-cyclopentyl-3-piperidyl)-[4-(1-hydroxyethyl)-2-naphthyl]methanone] yielded an IC50 of 150 nM.
CC(O)c1cc(C(=O)C2CCCN(C3CCC3)C2)cc2ccccc12 (stereo not drawn) [Example 64, (1-cyclobutyl-3-piperidyl)-[4-(1-hydroxyethyl)-2-naphthyl]methanone] was tested, and the IC50 was 43.8 nM.
COc1ccc2cc(C(=O)C3CCCN(C4CC(C#N)C4)C3)ccc2c1 (stereo not drawn) [Example 65, 3-[3-(6-methoxynaphthalene-2-carbonyl)-1-piperidyl]cyclobutanecarbonitrite] showed an IC50 of 309 nM.
For COc1ccc2cc(C(=O)C3CCCN(C4CC(F)(F)C4)C3)ccc2c1 (stereo not drawn) [Example 66, [1-(3,3-difluorocyclobutyl)-3-piperidyl]-(6-methoxy-2-naphthyl)methanone], the IC50 was 67.5 nM.
CC(O)c1cc(C(=O)C2CCCN(CC3CC3)C2)cc2ccccc12 (stereo not drawn) [Example 67, [1-(cyclopropylmethyl)-3-piperidyl]-[4-(1-hydroxyethyl)-2-naphthyl]methanone] was tested, and the IC50 was 148 nM.
CCCN1CCCC(C(=O)c2cc(C(C)O)c3ccccc3c2)C1 (stereo not drawn) [Example 68, [4-(1-hydroxyethyl)-2-naphthyl]-(1-propyl-3-piperidyl)methanone] was tested, and the IC50 was 76.2 nM.
COc1ccc2cc(C(=O)C3CCCN(CC4CCC4)C3)ccc2c1 (stereo not drawn) [Example 69, [1-(cyclobutylmethyl)-3-piperidyl]-(6-methoxy-2-naphthyl)methanone] was tested, and the IC50 was 150 nM.
CCCN1CCCC(C(=O)c2ccc3c(C)c(C#N)ccc3c2)C1 (stereo not drawn) [Example 70, 1-methyl-6-(1-propylpiperidine-3-carbonyl)-2-naphthonitrile] gave an IC50 of 91.8 nM.
Work on Cc1c(C#N)ccc2cc(C(=O)C3CCCN(CC4CC4)C3)ccc12 (stereo not drawn) [Example 71, 6-(1-(cyclopropylmethyl)piperidine-3-carbonyl)-1-methyl-2-naphthonitrile] yielded an IC50 of 132 nM.
Molecule Cc1c(C#N)ccc2cc(C(=O)C3CCCN(C4CCC4)C3)ccc12 (stereo not drawn) [Example 72, 6-(1-cyclobutylpiperidine-3-carbonyl)-1-methyl-2-naphthonitrile] has an IC50 of 87.5 nM.
Cc1c(C#N)ccc2cc(C(=O)C3CCCN(C4CCCC4)C3)ccc12 (stereo not drawn) [Example 73, 6-(1-cyclopentylpiperidine-3-carbonyl)-1-methyl-2-naphthonitrile] showed an IC50 of 327 nM.
CCN1CCCC(C(=O)c2ccc3cc(OC)ccc3c2)C1 (stereo not drawn) [Example 74, (1-ethyl-3-piperidyl)-(6-methoxy-2-naphthyl)methanone] was tested, and the IC50 was 1150 nM.
For COc1ccc2cc(C(=O)C3CCCN(C4CCC4)C3)ccc2c1 (stereo not drawn) [Example 76, (1-cyclobutyl-3-piperidyl)-(6-methoxy-2-naphthyl)methanone], the IC50 was 619 nM.
COc1ccc2cc(C(=O)C3CCCN(CC4CC4)C3)ccc2c1 (stereo not drawn) [Example 77, [1-(cyclopropylmethyl)-3-piperidyl]-(6-methoxy-2-naphthyl)methanone] gave an IC50 of 208 nM.
Work on COCCN1CCCC(C(=O)c2ccc3cc(OC)ccc3c2)C1 (stereo not drawn) [Example 78, [1-(2-methoxyethyl)-3-piperidyl]-(6-methoxy-2-naphthyl)methanone] yielded an IC50 of 2400 nM.
COc1ccc2cc(C(=O)C3CCCN(CCF)C3)ccc2c1 (stereo not drawn) [Example 79, [1-(2-fluoroethyl)-3-piperidyl]-(6-methoxy-2-naphthyl)methanone] gave an IC50 of 1800 nM.
COc1ccc2cc(C(=O)C3CCCN(C(C)C)C3)ccc2c1 (stereo not drawn) [Example 81, (1-isopropyl-3-piperidyl)-(6-methoxy-2-naphthyl)methanone] was tested, and the IC50 was 6500 nM.
COc1ccc2cc(C(=O)C3CCCN(CCC#N)C3)ccc2c1 (stereo not drawn) [Example 84, 3-[3-(6-methoxynaphthalene-2-carbonyl)-1-piperidyl]propanenitrile] was tested, and the IC50 was 709 nM.
CCCN1CCCC(C(=O)c2cccc(N(C)C)c2)C1 (stereo not drawn) [Example 90, [3-(dimethylamino)phenyl]-(1-propyl-3-piperidyl)methanone] showed an IC50 of 1600 nM.
For CCCN1CCCC(C(=O)c2ccc(Cl)cc2)C1 (stereo not drawn) [Example 91, (4-chlorophenyl)-(1-propyl-3-piperidyl)methanone], the IC50 was 1600 nM.
For CCCN1CCCC(C(=O)c2cccc(Cl)c2)C1 (stereo not drawn) [Example 92, (3-chlorophenyl)-(1-propyl-3-piperidyl)methanone], the IC50 was 723 nM.
CCCN1CCCC(C(=O)c2ccc3c(cnn3C)c2)C1 (stereo not drawn) [Example 94, (1-methylindazol-5-yl)-(1-propyl-3-piperidyl)methanone] was tested, and the IC50 was 122 nM.
CCCN1CCCC(C(=O)c2cccc(OCc3ccccc3)c2)C1 (stereo not drawn) [Example 95, (3-benzyloxyphenyl)-(1-propyl-3-piperidyl)methanone] showed an IC50 of 823 nM.
With CCCN1CCCC(C(=O)c2ccc(OC)cc2)C1 (stereo not drawn) [Example 97, (4-methoxyphenyl)-(1-propyl-3-piperidyl)methanone] the IC50 was 930 nM.
For CCCN1CCCC(C(=O)c2cccc(OC)c2)C1 (stereo not drawn) [Example 98, (3-methoxyphenyl)-(1-propyl-3-piperidyl)methanone], the IC50 was 1600 nM.
CCCN1CCCC(C(=O)c2ccccc2OC)C1 (stereo not drawn) [Example 99, (2-methoxyphenyl)-(1-propyl-3-piperidyl)methanone] was tested, and the IC50 was 5500 nM.
In the case of CCCN1CCCC(C(=O)c2ccc(C(F)(F)F)cc2)C1 (stereo not drawn) [Example 100, (1-propyl-3-piperidyl)-[4-(trifluoromethyl)phenyl]methanone], the IC50 is reported as 1200 nM.
With CCCN1CCCC(C(=O)c2ccc(Cl)c(Cl)c2)C1 (stereo not drawn) [Example 101, (3,4-dichlorophenyl)-(1-propyl-3-piperidyl)methanone] the IC50 was 279 nM.
CCCN1CCCC(C(=O)c2ccccc2-c2ccccc2)C1 (stereo not drawn) [Example 102, (2-phenylphenyl)-(1-propyl-3-piperidyl)methanone] was tested, and the IC50 was 5800 nM.
For CCCN1CCCC(C(=O)c2ccc(OC(F)(F)F)cc2)C1 (stereo not drawn) [Example 103, (1-propyl-3-piperidyl)-[4-(trifluoromethoxy)phenyl]methanone], the IC50 was 2000 nM.
CCCN1CCCC(C(=O)c2ccc(OC)c(OC)c2)C1 (stereo not drawn) [Example 104, (3,4-dimethoxyphenyl)-(1-propyl-3-piperidyl)methanone] was tested, and the IC50 was 744 nM.
In the case of CCCN1CCCC(C(=O)c2cc(OC)cc(OC)c2)C1 (stereo not drawn) [Example 105, (3,5-dimethoxyphenyl)-(1-propyl-3-piperidyl)methanone], the IC50 is reported as 272 nM.
With CCCN1CCCC(C(=O)c2ccc(C)c(C)c2)C1 (stereo not drawn) [Example 106, (3,4-dimethylphenyl)-(1-propyl-3-piperidyl)methanone] the IC50 was 247 nM.
In the case of CCCN1CCCC(C(=O)c2ccc3c(c2)CCCC3)C1 (stereo not drawn) [Example 107, (1-propyl-3-piperidyl)-tetralin-6-yl-methanone], the IC50 is reported as 99.8 nM.
With CCCN1CCCC(C(=O)c2ccc3c(c2)OCCO3)C1 (stereo not drawn) [Example 108, 2,3-dihydro-1,4-benzodioxin-6-yl-(1-propyl-3-piperidyl)methanone] the IC50 was 297 nM.
O=C(c1ccc2c(Oc3ccccc3)cccc2c1)C1CCCN(CC2CC2)C1 (stereo not drawn) [Example 112, (1-(cyclopropylmethyl)piperidin-3-yl)(5-phenoxynaphthalen-2-yl)methanone] was tested, and the IC50 was 175 nM.
O=C(c1ccccc1Cl)C1CCCN(CC2CC2)C1 (stereo not drawn) [Example 113, (2-chlorophenyl)(1-(cyclopropylmethyl)piperidin-3-yl)methanone] showed an IC50 of 5400 nM.
In the case of COc1cccc2cc(C(=O)C3CCCN(CC4CC4)C3)ccc12 (stereo not drawn) [Example 114, (1-(cyclopropylmethyl)piperidin-3-yl)(5-methoxynaphthalen-2-yl)methanone], the IC50 is reported as 220 nM.
Cc1c(C(=O)C2CCCN(CC3CC3)C2)ccc2ccccc12 (stereo not drawn) [Example 115, (1-(cyclopropylmethyl)piperidin-3-yl)(1-methylnaphthalen-2-yl)methanone] was tested, and the IC50 was 439 nM.
Work on Cn1ccc2ccc(C(=O)C3CCCN(CC4CC4)C3)cc21 (stereo not drawn) [Example 119, (1-(cyclopropylmethyl)piperidin-3-yl)(1-methyl-1H-indol-6-yl)methanone] yielded an IC50 of 2300 nM.
O=C(c1cc2ccccc2s1)C1CCCN(CC2CC2)C1 (stereo not drawn) [Example 120, Benzo[b]thiophen-2-yl(1-(cyclopropylmethyl)piperidin-3-yl)methanone] was tested, and the IC50 was 389 nM.
COc1cc2ccc(C(=O)C3CCCN(CC4CC4)C3)cc2cn1 (stereo not drawn) [Example 121, (1-(cyclopropylmethyl)piperidin-3-yl)(3-methoxyisoquinolin-7-yl)methanone] showed an IC50 of 380 nM.
In the case of COc1ccc2cc(C(=O)C3CCCN(CC4CC4)C3)ccc2n1 (stereo not drawn) [Example 122, (1-(cyclopropylmethyl)piperidin-3-yl)(2-methoxyquinolin-6-yl)methanone], the IC50 is reported as 205 nM.
O=C(c1ccc2c(OCc3ccccc3)cccc2c1)C1CCCN(CC2CC2)C1 (stereo not drawn) [Example 123, (5-(benzyloxy)naphthalen-2-yl)(1-(cyclopropylmethyl)piperidin-3-yl)methanone] showed an IC50 of 90.9 nM.
With O=C(c1cnn(-c2ccccc2)c1)C1CCCN(CC2CC2)C1 (stereo not drawn) [Example 124, (1-(cyclopropylmethyl)piperidin-3-yl)(1-phenyl-1H-pyrazol-4-yl)methanone] the IC50 was 656 nM.
O=C(c1cnc2ccccc2c1)C1CCCN(CC2CC2)C1 (stereo not drawn) [Example 125, (1-(cyclopropylmethyl)piperidin-3-yl)(quinolin-3-yl)methanone] gave an IC50 of 489 nM.
With O=C(c1cccc2ccccc12)C1CCCN(CC2CC2)C1 (stereo not drawn) [Example 126, (1-(cyclopropylmethyl)piperidin-3-yl)(naphthalen-1-yl)methanone] the IC50 was 3800 nM.
Molecule O=C(c1ccc(F)c2ccccc12)C1CCCN(CC2CC2)C1 (stereo not drawn) [Example 127, (1-(cyclopropylmethyl)piperidin-3-yl)(4-fluoronaphthalen-1-yl)methanone hydrochloride] has an IC50 of 1900 nM.
O=C(c1ccc2ccccc2c1F)C1CCCN(CC2CC2)C1 (stereo not drawn) [Example 128, (1-(cyclopropylmethyl)piperidin-3-yl)(1-fluoronaphthalen-2-yl)methanone] showed an IC50 of 133 nM.
